The source of these data is patent publication US20260085047A1, “TRIPHENYLAZOLE COMPOUND” (SHIRATORI PHARMACEUTICAL CO., LTD., priority 2022, published 2026).

For one test, the system named is dopaminergic neurons. To be noted: reported in PTL 1 and NPL 6; cited from earlier work.
Another test deals with T1, GST-FABP5.
T1 construct: made in house; host or cells: E. coli BL21 (DE3)
Nature of the test: Evaluation of FABP ligand affinity using ANS (GST-FABP5). It counts as binding, mouse. Particulars: ANS fluorescence displacement; mean±SE of three measurements; read-out: Kd value of FABP for each ligand, GST-FABP5. On the procedure:
(§1) GST-FABP3, GST-FABP4, GST-FABP5, and GST-FABP7 were each expressed in E. coli [BL21 (DE3) strain], and then affinity purification was performed using a glutathione column.
(§2) Cloning of GST-FABP3, GST-FABP4, GST-FABP5 and GST-FABP7 vectors was performed by the following method. After reverse transcription of mRNA isolated from mouse heart into cDNA, the FABP3 gene (RefSeqID: NM_010174.1) and FABP4 gene (RefSeqID: NM_024406.2) were each amplified by PCR. These cDNAs were each inserted between the BamHI/EcoRI cleavage sites of a pGEX-2T vector (GE HealthCare Japan, Tokyo) using a DNA ligation kit (Takara Bio, Kusatsu) and an In-fusion kit (Takara Bio USA, CA, USA) to prepare vectors.
(§3) Purification of GST-binding proteins was performed using a GST purification kit (Takara Bio USA). After the E. coli were collected by centrifugation, the provided extraction buffer and aluminum oxide powder were added, and the mixture was crushed in a mortar. The centrifuged supernatant was added to the provided glutathione column and allowed to stand on ice for 30 minutes. The supernatant in the column was then discarded, and washing was performed with extraction buffer, followed by elution with elution buffer containing glutathione. The protein concentration of the elution product was calculated from the absorbance at 280 nm and then used for the ANS assay. 1-anilinonaphthalene-8-sulfonic acid (ANS, final concentration: […], in a solution of 10 mM KH2PO4 and 40 mM KCl at pH 7.4), which binds to FABP proteins and emits fluorescence, and FABP proteins (final concentration: […]), as well as various ligands at concentrations of 0 nM, 100 nM, 1,000 nM, 2,000 nM, and 4,000 nM (final) were incubated for 2 min, and then the fluorescence of ANS was measured (Ex/Em=355 nm/460 nm). The fluorescence intensity at each ligand concentration was converted to a relative value (%) to the ANS fluorescence intensity in the absence of ligand, and then the dissociation constant Kd (nM) was calculated by […] using the following equation.

Another test deals with T2, GST-FABP4.
T2 construct: made in house; host or cells: E. coli BL21 (DE3)
Nature of the test: Evaluation of FABP ligand affinity using ANS (GST-FABP4). It counts as binding, mouse. To be noted: ANS fluorescence displacement; mean±SE of three measurements; read-out: Kd value of FABP for each ligand, GST-FABP4. On the procedure:
as §1, §2, §3
The Kd values in the above table are indicated as the mean±SE of three measurements. […] Example Compounds 1 to 5 in the table may also be referred to as Compounds 1 to 5, respectively.

Test [1] has as its system MPTP-treated C57BL6 N mice (PD model animals). Nature of the test: Beam walking task in PD model animals (MPTP). It counts as in vivo, mouse. Particulars: Example Compound 2 0.03, 0.1, 0.3 mg/kg or LIGAND 1 0.3 mg/kg, Day 34, FIG. 5. On the procedure: In the beam walking task, the mice were placed on a thin board and allowed to walk, and the number of foot slips before reaching the goal box (corresponding to the vertical axis Number of foot slips in FIG. 5) was measured.

Test [2] relates to dopaminergic neurons (TH+ cells) in SNpc and VTA. Kind of test: Dopaminergic neuroprotection: TH-positive cells in brain sections of PD model animals. Particulars: MPTP mice; Example Compound 2 0.1, 0.3, 1.0 mg/kg or LIGAND 1 0.3 mg/kg; Day 34; FIGS. 6 to 9. In kind it is in vivo, mouse.
Description: The results for the substantia nigra region are shown in FIGS. 6, 7, 10, 11, 14, and 15, and for the ventrotegmental area in FIGS. 8, 9, 12, 13, 16, and 17 (the vertical axis Number of TH^+ cells in FIGS. 6 and 8 corresponds to the number of dopaminergic neurons. The vertical axis Number of double-positive cells/TH^+ positive cells (%) in FIGS. 11 and 13 corresponds to the percentage of dopaminergic neurons that contain phosphorylated α-synuclein. The vertical axis Triple-positive cells/TH-positive cells in FIGS. 15 and 17 corresponds to the percentage of dopaminergic neurons that contain both FABP3 and phosphorylated α-synuclein).
The test system of test [3] is MPTP-treated C57BL6 N mice (PD model animals). Kind of test: Rotarod task in PD model animals (MPTP). In kind it is in vivo, mouse. Particulars: Example Compound 2 0.03, 0.1, 0.3 mg/kg or LIGAND 1 0.3 mg/kg, Day 34, 20 rpm, FIG. 4.

T2 sequence (P15090 whole entry): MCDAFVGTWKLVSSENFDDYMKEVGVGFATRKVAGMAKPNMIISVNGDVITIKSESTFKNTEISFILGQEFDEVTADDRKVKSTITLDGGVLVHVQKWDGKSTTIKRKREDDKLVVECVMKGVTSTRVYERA
T1 sequence (Q01469 whole entry): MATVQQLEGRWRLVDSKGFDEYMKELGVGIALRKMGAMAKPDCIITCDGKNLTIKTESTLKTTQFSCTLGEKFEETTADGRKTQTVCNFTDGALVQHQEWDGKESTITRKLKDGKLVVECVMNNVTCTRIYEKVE

For `O=C(O)CCCOc1ccccc1-c1cc(-c2ccccc2Cl)n(-c2ccccc2)n1` [LIGAND 1, reference compound], the “Protection of dopaminergic neurons from cell death due to α-synuclein oligomerization” value in the test on dopaminergic neurons is listed as “protects dopaminergic neurons from cell death”. Further, the Kd at GST-FABP5 amounted to 324 ± 45.2 nM; on GST-FABP4, 229 ± 39.9 nM. Also, the “Beam walking task: number of foot slips, motor function” value in test [1] is “Improvement was also confirmed”. Moreover, the “Number of TH+ cells (dopaminergic neurons) in SNpc and VTA” value in test [2] is “no improvement was observed”. Moreover, in test [3], the “Rotarod task: time until the mice fell (Latency), motor function” value is given as “No improvement was observed”.
